Residues, ends and D or L forms follow the SMILES beside them.
System: HaCaT human keratinocyte line
Experiment: Oris Cell Migration Assay: migration of keratinocytes
Assay type: cell-based
Details: DMEM 0% FCS; for % Migration (control 0% FCS = 100) / Average ± SD (fluorescence intensity, FI): 24 h
Excerpt: The objective of this test was to evaluate the effect of hyaluronic acid, oat seedling extract, L-alanyl-L-glutamine and combinations thereof on the migration of keratinocytes using the Oris Cell Migration Assay kit (Platypus Technologies).
The spontaneously immortalised HaCaT human keratinocyte line, frequently cited as reference model in the literature was used.
The protocol used for the study of cell migration is based on the use of a 96 well kit, the Oris Cell Migration Assay (Platypus technologies—TEBU), enabling the miniaturisation and the quantification of this cellular process.
The principle of this test consists in studying cell migration towards the centre of the wells of the 96 well plate. It consists in placing a stopper in the wells, in order to create a 2 mm diameter detection zone. Then removing the stoppers once cells have properly adhered to the surface around them, and thus to enable cells to migrate towards the detection zone. The plates without stoppers and with the active ingredients are incubated at 37° C. for 24 hours in DMEM (Dulbecco's Modified Eagle Medium) 0% FCS (foetal calf serum). The quantity of cells situated in the zone where the stopper was is analysed in order to evaluate the migration of the cells. A mask makes it possible to visualise and to count uniquely the cells situated in this zone. For each condition, the average is determined on 6 to 8 wells.
The cells were incubated in FCS-free medium.
• EGF: 33 ng/ml, • oat seedling extract: 10 or 30 μg/ml,
Filtering. Concentration by drying until a dry extract is obtained. • sodium hyaluronate (molecular weight 250-450 kDa): 20 or 60 μg/ml, • L-alanyl-L-glutamine: 40 or 90 μg/ml. Analysis of the Results
The Results are Expressed: • In fluorescence intensity (FI), proportional to the quantity of cells having migrated. • In percentage activity compared to the control 0% FCS.
[formula] Statistical Analyses
Statistical analyses by the Dunnett test were carried out on the crude migration values. This test then gives “p value” values characterising the significance of the results obtained for different conditions. The degree of significance was fixed at
The results at different concentrations of the effect of oat seedling extract, hyaluronic acid and L-alanyl-L-glutamine, alone or in combination on the migration of keratinocytes are indexed in tables 1 and 2 then represented in the single FIGURE. The fluorescence intensity values represented on this curve correspond to an average of 6 to 8 measurements carried out during an experiment representative of 3 independent manipulations.

Compound	effect on the migration of keratinocytes (in words) (L-alanyl-L-glutamine alone, 40 or 90 μg/ml)	% Migration (control 0% FCS = 100) (Table 1, 40 μg/ml) [%]	Average ± SD (fluorescence intensity, FI) (Table 1, 40 μg/ml)	% Migration (control 0% FCS = 100) (Table 2, 90 μg/ml) [%]	Average ± SD (fluorescence intensity, FI) (Table 2, 90 μg/ml)	% Migration (control 0% FCS = 100) (Table 1, EGF 33 ng/ml) [%]	Average ± SD (fluorescence intensity, FI) (Table 1, EGF 33 ng/ml)	Average ± SD (fluorescence intensity, FI) (Table 2, EGF 33 ng/ml)	% Migration (control 0% FCS = 100) (Table 2, EGF 33 ng/ml, * p < 0.05 versus control)	effect on the migration of keratinocytes (in words) (positive control, EGF 33 ng/ml)
C[C@H](N)C(=O)N[C@@H](CCC(N)=O)C(=O)O [ALANYL GLUTAMINE, L-alanyl-L-glutamine] (H-Ala-Gln-OH)	induces the migration of keratinocytes in a concentration-dependent manner	200	2471 ± 788	194	2586 ± 1092					
EGF: EGF, positive control of the migration experiments, 33 ng/ml						216	2569±	3553 ± 1556	301 * %	induces the migration of keratinocytes

Reference: patent US9849154B2, “Synergistic combination of alanine-glutamine, hyaluronic acid and oat extract and the use thereof in a composition intended for healing wounds and repairing skin lesions” (PIERRE FABRE DERMO-COSMETIQUE, priority 2013, dated 2017)
